Data published in PubChem BioAssay (NCI).
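How tested: cells in 96-well plates exposed to compound for 48 hours at five concentrations. TGI is the concentration that stops growth completely.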

Columns and labels:
Assay in all cases: growth of human tumour cells (NCI), 48 h
HOP-92 NSCLC = test system: HOP-92 NSCLC
MALME-3M melanoma = test system: MALME-3M melanoma
NCI-H522 lung = test system: NCI-H522 lung
OVCAR-5 ovarian = test system: OVCAR-5 ovarian
SK-MEL-2 melanoma = test system: SK-MEL-2 melanoma
SK-MEL-28 melanoma = test system: SK-MEL-28 melanoma
SK-MEL-5 melanoma = test system: SK-MEL-5 melanoma
SN12C renal = test system: SN12C renal
SR leukemia = test system: SR leukemia
UACC-257 melanoma = test system: UACC-257 melanoma
UO-31 renal = test system: UO-31 renal
IGROV1 ovarian = test system: IGROV1 ovarian
NCI/ADR-RES ovarian = test system: NCI/ADR-RES ovarian
T-47D breast = test system: T-47D breast

Row | SMILES | TGI (HOP-92 NSCLC) [µM] | TGI (MALME-3M melanoma) [µM] | TGI (NCI-H522 lung) [µM] | TGI (OVCAR-5 ovarian) [µM] | TGI (SK-MEL-2 melanoma) [µM] | TGI (SK-MEL-28 melanoma) [µM] | TGI (SK-MEL-5 melanoma) [µM] | TGI (SN12C renal) [µM] | TGI (SR leukemia) [µM] | TGI (UACC-257 melanoma) [µM] | TGI (UO-31 renal) [µM] | TGI (IGROV1 ovarian) [µM] | TGI (NCI/ADR-RES ovarian) [µM] | TGI (T-47D breast) [µM]
1 | CC(C)OP(=O)(OC(C)C)C(=NCCO)NNc1ccc([N+](=O)[O-])cc1 | > 100 | > 100 | > 100 | > 100 | > 100 | > 100 | > 100 | > 100 | > 100 | > 100 | > 100 | – | – | –
2 | COC1(OC)CC2C(=O)N(Cc3ccccc3)C1C(S(=O)(=O)c1ccccc1)C2C(C)S(=O)(=O)c1ccccc1 (centres undefined) | > 100 | > 100 | > 100 | > 100 | > 100 | > 100 | > 100 | > 100 | > 100 | > 100 | – | > 100 | – | –
3 | O=C(N/N=C(/COc1ccccc1)N=Cc1ccncc1)c1ccncc1 | > 100 | – | – | > 100 | > 100 | > 100 | – | > 100 | – | > 100 | – | > 100 | > 100 | > 100
4 | CC1CC(=O)Nc2ccc(Cl)cc2N1C(=O)CN1CCC(CCCCN(C)C)CC1 (centres undefined) | > 100 | > 100 | – | > 100 | – | > 100 | > 100 | > 100 | > 100 | > 100 | > 100 | > 100 | – | –
5 | Cc1ccc(S(=O)(=O)NC(=O)C2S(=O)(=O)OCCOS2(=O)=O)cc1 | > 100 | > 100 | > 100 | – | > 100 | > 100 | > 100 | > 100 | > 100 | > 100 | > 100 | – | – | –
6 | CC1=C(C(=O)NNC(=O)Cc2ccccc2)CC(C(=O)NNC(=O)Cc2ccccc2)=C(C)N1 | > 100 | – | – | > 100 | > 100 | > 100 | > 100 | > 100 | – | > 100 | > 100 | > 100 | > 100 | > 100
7 | CCOC(=O)/C(Br)=C1\OC(=O)c2ccccc2-c2ccccc21 | 79.9 | > 100 | 61.1 | > 100 | > 100 | > 100 | > 100 | > 100 | 56.7 | > 100 | > 100 | > 100 | – | –
8 | COc1ccc(-c2nc(-c3ccc(OC)cc3)n(-c3ccccc3)n2)cc1 | > 100 | – | 62.5 | > 100 | > 100 | > 100 | > 100 | > 100 | – | > 100 | > 100 | > 100 | > 100 | > 100
9 | NCCOc1ccc(/C(=C(/Cl)c2ccccc2)c2ccccc2)cc1 | 16.8 | 24.3 | 26.4 | 30.8 | 29.1 | 18.6 | 22.3 | 24 | 12.1 | 24.8 | 21.4 | 29.9 | – | –
10 | CCOC(=O)Cc1c(C)c2ccc(OC(C)=O)c(OC(C)=O)c2oc1=O | 71.3 | > 100 | – | > 100 | > 100 | > 100 | > 100 | > 100 | 64.4 | 51.1 | 55.8 | 44.3 | 58.4 | –
11 | CCOC(=O)NN(C(=O)OCC)c1ccc(N=Nc2ccc(OC)cc2)n1C | 78.5 | 62.7 | 60.4 | > 100 | 29.4 | – | 32.6 | > 100 | – | 56.1 | 71 | 87.2 | 94.6 | 76.2
12 | CCN(CC)CC1CCCCN1CC(=O)N1c2cc(Cl)ccc2NC(=O)CC1C (centres undefined) | > 100 | > 100 | > 100 | > 100 | > 100 | > 100 | > 100 | > 100 | > 100 | > 100 | > 100 | – | – | –
13 | COc1c(C)c(C/C=C(\C)CC/C=C(\C)CC/C=C(\C)CCC=C(C)C)c(OC)c(OC)c1OC | > 100 | – | > 100 | > 100 | > 100 | – | > 100 | > 100 | > 100 | > 100 | > 100 | > 100 | > 100 | –
14 | COc1cc(C2CC(C)(N3CCOCC3)Oc3cc4c(cc32)OCO4)cc(OC)c1OC (centres undefined) | > 100 | > 100 | > 100 | > 100 | > 35.9 | – | 1.54 | > 100 | > 100 | > 100 | > 100 | > 35.9 | > 100 | –
15 | CCOC(=O)COc1cc(-c2ccccc2F)nc2cc3c(cc12)OCO3 | 98.8 | > 100 | – | > 100 | > 100 | > 100 | > 100 | > 100 | – | > 100 | – | > 100 | > 100 | > 100
16 | c1ccc(-c2csc3c2-n2cccc2C3N2CCCC2)cc1 (centres undefined) | 81.9 | > 100 | > 100 | > 100 | > 100 | > 100 | 22.6 | > 100 | > 100 | 39.9 | > 100 | > 100 | > 100 | –
17 | Cc1ccsc1/C=N/NC1=NCCN1 | > 100 | > 100 | – | > 100 | > 100 | > 100 | > 100 | > 100 | – | > 100 | > 100 | > 100 | > 100 | > 100
18 | NC(Cc1ccc(O)cn1)C(=O)NC(C(=O)O)c1ccccc1 (centres undefined) | > 100 | > 100 | > 100 | > 100 | – | > 100 | > 100 | > 100 | > 100 | > 100 | > 100 | > 100 | > 100 | –
